The source of these data is patent US20260364030A1, “NOVEL SELECTIVE INHIBITORS OF LYSYL OXIDASES” (Syntara Limited, priority 2022, published 2026).

As a reminder, the IC50 is the concentration that inhibits the measured activity by half.

In assay [1] the target is T1, Human MAO-B (Homo sapiens, UniProt P27338).
T1 construct: purchased Sigma Aldrich
In words: Inhibition of human recombinant MAO-B. To be noted: substrate benzylamine 100 μM. It is filed as biochemical.

The test system of assay [2] is collagen cross-links. In words: Rodent injury model (full-thickness skin excision). Format: in vivo, mice. As to the method:
Mice received injury by excision of full-thickness skin (3 cm^2 on the flank of the mice). In the treatment groups, 4% Compound 1 solution was applied topically, once a day, starting from 24 hours post injury to 1 week post injury. Wounds were then left to heal for an additional week. Mice were euthanized at 4-6 weeks post injury and the tissue was analyzed for collagen content, hydroxyproline as a surrogate marker of collagen content, extracted cross-link biomarkers: HLNL, DHLNL (reduced forms of deH-HLNL and deH-DHLNL respectively), PYD and DPD, elastin content, and changes in gross morphology and histology (using polarised light microscopy, immunohistochemistry, standard staining markers and LCMSMS).

For assay [3], the target named is Human recombinant LOXL4 (Homo sapiens, UniProt Q96JB6). Description: LOXL4 inhibition, Amplex Red oxidation assay. Format: biochemical. As to conditions: 30 min incubation with enzyme at 37 °C. The procedure:
(§1) LOX and LOXL protein family members can be acquired as recombinant active proteins from commercial sources, or extracted from animal tissues like bovine aorta, tendons, pig skin; or prepared from cell cultures. The inhibitory effects of the compounds of the present invention were tested against the given LOX or LOXL preparation using a method based on the detection of hydrogen peroxide with an Amplex Red oxidation assay [Zhou et al, 1997]. The assay was developed using either 384 or 96 well format. Briefly, in a standard black, clear bottom 384 well plate assay 25 µL of a dilution of any of the isoenzymes and orthologues in 1.2 M urea, 50 mM sodium borate buffer (pH 8.2) were added into each well in the presence of […] and 0.5 mM pargyline (to inhibit SSAO and MAO-B and MAO-A, respectively; not necessary if the enzyme is from a recombinant or purified form). Test compounds were dissolved in DMSO and tested in a Concentration Response Curve (CRC) with 11 data points, typically in the micromolar or nanomolar range after incubation with the enzyme for 30 min at 37 °C. […] The fluorescence (RFU) was read every 2.5 min for 30 min at 37 °C, excitation 544 nm and emission 590 (Optima; BMG labtech). The slope/min of the kinetics for each well was calculated using MARS data analysis software (BMG labtech) and this value was used to deduce the IC50 value (Dotmatics). […]

The target in assay [4] is T2, Human MAO-A (Homo sapiens, UniProt P21397).
T2 construct: purchased Sigma Aldrich
T2 sequence (P21397 whole entry): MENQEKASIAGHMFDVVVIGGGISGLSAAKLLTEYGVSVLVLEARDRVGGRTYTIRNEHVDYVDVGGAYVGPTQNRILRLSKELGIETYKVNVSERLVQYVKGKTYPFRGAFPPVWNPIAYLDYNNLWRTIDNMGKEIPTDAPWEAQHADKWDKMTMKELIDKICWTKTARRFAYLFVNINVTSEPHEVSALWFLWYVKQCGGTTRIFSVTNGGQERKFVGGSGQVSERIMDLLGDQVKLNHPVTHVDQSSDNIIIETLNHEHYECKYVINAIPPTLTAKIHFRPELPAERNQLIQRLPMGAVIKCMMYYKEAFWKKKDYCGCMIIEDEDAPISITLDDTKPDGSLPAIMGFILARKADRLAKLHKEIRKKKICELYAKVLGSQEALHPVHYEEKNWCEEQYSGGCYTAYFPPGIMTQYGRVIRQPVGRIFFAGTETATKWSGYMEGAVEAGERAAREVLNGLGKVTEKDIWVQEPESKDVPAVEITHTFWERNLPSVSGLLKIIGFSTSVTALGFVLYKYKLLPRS
Description: Inhibition of human recombinant MAO-A. It is filed as biochemical. To be noted: 2 hours incubation; substrate tyramine 200 μM.

The target in assay [5] is T3, LOXL1 (Homo sapiens, UniProt Q08397).
T3 sequence (Q08397 96-574): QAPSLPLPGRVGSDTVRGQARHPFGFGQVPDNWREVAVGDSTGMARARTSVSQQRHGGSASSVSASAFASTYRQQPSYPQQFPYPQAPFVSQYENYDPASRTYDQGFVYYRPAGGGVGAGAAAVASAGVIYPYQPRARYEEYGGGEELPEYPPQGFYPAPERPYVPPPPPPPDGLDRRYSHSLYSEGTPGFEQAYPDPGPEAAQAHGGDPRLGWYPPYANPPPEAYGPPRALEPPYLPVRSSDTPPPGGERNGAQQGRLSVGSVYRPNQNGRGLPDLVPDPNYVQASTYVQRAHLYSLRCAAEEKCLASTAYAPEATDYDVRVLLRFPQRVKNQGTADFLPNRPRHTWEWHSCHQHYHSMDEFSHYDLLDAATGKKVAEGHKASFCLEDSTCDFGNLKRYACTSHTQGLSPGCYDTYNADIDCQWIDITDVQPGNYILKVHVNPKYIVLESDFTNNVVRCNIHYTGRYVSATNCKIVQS
In words: LOXL1 inhibition, Amplex Red oxidation assay. It is filed as biochemical. As to conditions: 30 min incubation with enzyme at 37 °C. As to the method:
as §1

Assay [6] has as its target T3, LOXL1. Description: Jump dilution experiment, sustained inhibition of LOXL1. It is filed as biochemical. To be noted: for LOXL1 enzyme activity recovery: at 21-30 min after jump dilution, 10×IC50, 40 min preincubation at 37 °C; for Sustained inhibition of LOXL1: jump dilution, 21-30 min. The procedure: Jump Dilution experiment: The assay was developed using a 96 well format and the starting enzyme concentration was set 100 times higher than for the inhibition studies. The enzyme was incubated for 40 minutes at 37 °C in presence of 10×IC50 concentrations of the test inhibitor. After the incubation, the mixture was diluted 50x in assay buffer, followed by a further 2× dilution in Amplex Red-horseradish peroxidase-putrescine reaction mix (as for Example 2) prior to the fluorescence measurement. Results were expressed in % recovery of the signal at 21-30 min by comparison with non-inhibited controls. LOXL1 is used as a surrogate for LOX owing to similar pharmacological behaviour.

In assay [7] the target is T4, Human DAO (Homo sapiens, UniProt P19801).
T4 construct: Prof; Boehm, Department of Clinical Pharmacology, Medical University, Vienna (gift)
T4 sequence (P19801 20-751): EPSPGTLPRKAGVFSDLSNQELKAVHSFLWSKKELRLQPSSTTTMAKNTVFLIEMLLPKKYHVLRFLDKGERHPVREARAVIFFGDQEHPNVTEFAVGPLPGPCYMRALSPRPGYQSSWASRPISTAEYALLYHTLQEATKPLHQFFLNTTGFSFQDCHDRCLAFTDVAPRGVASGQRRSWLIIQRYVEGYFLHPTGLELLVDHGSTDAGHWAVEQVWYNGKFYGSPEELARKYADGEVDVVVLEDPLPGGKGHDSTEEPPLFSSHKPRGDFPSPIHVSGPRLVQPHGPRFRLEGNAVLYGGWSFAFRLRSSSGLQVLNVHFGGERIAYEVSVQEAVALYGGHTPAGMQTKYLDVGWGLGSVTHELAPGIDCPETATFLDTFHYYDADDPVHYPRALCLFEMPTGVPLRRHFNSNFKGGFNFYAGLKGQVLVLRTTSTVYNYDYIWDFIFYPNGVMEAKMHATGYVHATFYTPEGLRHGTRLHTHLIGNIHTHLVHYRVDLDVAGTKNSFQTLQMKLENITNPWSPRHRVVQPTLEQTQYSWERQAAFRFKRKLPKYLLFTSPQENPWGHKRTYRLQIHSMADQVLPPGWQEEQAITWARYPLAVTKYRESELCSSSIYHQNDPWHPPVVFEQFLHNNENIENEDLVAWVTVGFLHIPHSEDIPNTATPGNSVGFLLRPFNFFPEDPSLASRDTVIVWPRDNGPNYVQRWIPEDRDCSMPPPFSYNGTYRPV
In words: Inhibition of human recombinant DAO. As to conditions: 2 hours incubation; substrate putrescine 200 μM. It is filed as biochemical.

Assay [8] concerns ovarian cancer. To be noted: ovarian cancer genetically engineered mouse models; cited from earlier work.
In assay [9] the test system is massive, pedunculated keloids. As to conditions: BAPN or penicillamine, and colchicine; following excision of keloid and grafting; cited from earlier work.
Assay [10] relates to lysyl oxidase. To be noted: various models (e.g. CCl4, bleomycin, quartz, cancer) and tissues (e.g. liver, lung and dermis); cited from earlier work.
[11] abbreviates: 4% solution topically once a day, 24 hours to 1 week post injury, vs control (FIG. 4, *=P≤0.05).

Each structure is given as a SMILES string.

Chain of Human recombinant LOXL4 (Q96JB6 25-756): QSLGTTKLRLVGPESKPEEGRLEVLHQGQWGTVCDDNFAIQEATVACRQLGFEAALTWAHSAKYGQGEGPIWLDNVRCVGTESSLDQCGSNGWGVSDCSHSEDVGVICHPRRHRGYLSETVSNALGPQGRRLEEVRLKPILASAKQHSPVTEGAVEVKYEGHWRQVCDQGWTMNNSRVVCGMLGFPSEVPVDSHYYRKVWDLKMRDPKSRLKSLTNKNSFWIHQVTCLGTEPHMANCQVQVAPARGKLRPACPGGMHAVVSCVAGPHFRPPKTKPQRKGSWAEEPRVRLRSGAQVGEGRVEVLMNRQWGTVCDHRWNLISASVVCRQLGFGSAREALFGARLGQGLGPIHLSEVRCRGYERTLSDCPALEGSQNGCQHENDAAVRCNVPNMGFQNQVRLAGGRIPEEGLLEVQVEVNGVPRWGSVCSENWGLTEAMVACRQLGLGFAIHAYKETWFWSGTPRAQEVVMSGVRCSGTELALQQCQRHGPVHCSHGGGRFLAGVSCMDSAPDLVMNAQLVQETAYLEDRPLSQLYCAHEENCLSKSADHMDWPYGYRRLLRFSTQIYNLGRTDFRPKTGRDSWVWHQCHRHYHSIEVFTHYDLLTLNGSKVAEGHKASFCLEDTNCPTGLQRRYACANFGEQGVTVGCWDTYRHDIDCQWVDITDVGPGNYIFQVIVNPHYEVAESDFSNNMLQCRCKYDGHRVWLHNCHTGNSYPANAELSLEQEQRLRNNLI
T1 sequence (P27338 whole entry): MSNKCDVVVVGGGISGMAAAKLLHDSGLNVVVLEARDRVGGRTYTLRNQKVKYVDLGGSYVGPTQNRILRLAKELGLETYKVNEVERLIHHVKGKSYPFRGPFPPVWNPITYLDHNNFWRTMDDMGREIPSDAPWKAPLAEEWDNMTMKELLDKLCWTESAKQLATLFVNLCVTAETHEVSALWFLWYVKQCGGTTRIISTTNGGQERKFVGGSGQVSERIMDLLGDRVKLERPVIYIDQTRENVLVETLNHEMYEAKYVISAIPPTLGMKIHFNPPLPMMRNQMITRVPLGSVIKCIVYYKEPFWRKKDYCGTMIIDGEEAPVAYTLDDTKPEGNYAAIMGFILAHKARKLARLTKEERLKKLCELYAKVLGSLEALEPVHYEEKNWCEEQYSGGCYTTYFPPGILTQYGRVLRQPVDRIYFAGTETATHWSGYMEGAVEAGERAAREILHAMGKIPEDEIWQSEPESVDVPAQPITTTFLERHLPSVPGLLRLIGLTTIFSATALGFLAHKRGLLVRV

In the case of `NC/C(=C\F)CS(=O)(=O)c1ccccc1` [Compound 1, (E)-3-fluoro-2-((phenylsulfonyl)methyl)prop-2-en-1-amine], the IC50 in [1] is greater than 30 µM; in assay [3], 4.7 µM; in assay [4], greater than 100 µM; in assay [5], 13.2 µM; in assay [7] it was greater than 100 µM. Also, the “Immature crosslinks (LCMS, normalized for protein content)” value in assay [2] (setting [11]) is “reduced”. The “Mature crosslinks (LCMS, normalized for protein content)” value in assay [2] (setting [11]) is recorded as “reduced”. In [2] (rodent injury model, FIG. 4 (*=P≤0.05)), the Collagen cross-links result is “reduction in collagen cross-links”. Moreover, the “LOXL1 enzyme activity recovery” value in assay [6] was 2.5%. In assay [6], the “Sustained inhibition of LOXL1” value is given as “sustained inhibition”.

For `N#CCCN` [BAPN, β-aminopropionitrile, reference compound], the IC50 in assay [3] amounted to 0.3 µM; in [5], 2.5 µM. Further, the “LOXL1 enzyme activity recovery” value in assay [6] turned out to be 0.3%. The “Sustained inhibition of LOXL1” value in assay [6] is “sustained inhibition”. Further, in assay [8], the “Survival and lung metastasis” value is “significantly increased survival and decreased lung metastasis”. For the same molecule, the “Effect on surface scarring” value in assay [9] is listed as “measurable beneficial effect on surface scarring”. Also, the “Reduction of collagen content” value in assay [10] was “efficacious in reducing collagen content”.
